Assay results taken from patent US11304957B2, “Substituted quinazolines for inhibiting kinase activity” (NeuPharma, Inc., priority 2013, dated 2022).
Each block holds one compound with its values, some of them ahead of it.

Key:
Type in all cases: biochemical
BTK = BTK (Homo sapiens (Human), UniProt Q06187); experiment: Z'-LYTE kinase inhibition assay, BTK; conditions: read-out: % inhibition BTK; heading: % inhibition BTK; compound at 0.041 μM
Method: (§1) Inhibitory activities of compounds against BTK, EGFR and EGFR mutants (EGFR L858R, EGFR T790M, EGFR L858R/T790M), FGFR1, FGFR2, JAK2, JAK3 and KDR were measured by Invitrogen using Z′-LYTE® Method as briefly described in the following.
(§2) Test Compounds are screened in 1% DMSO (final) in the well. For 10 point titrations, 3-fold serial dilutions are conducted from the starting concentration. All ATP Solutions are diluted to a 4× working concentration in Kinase Buffer (50 mM HEPES pH 7.5, 0.01% BRIJ-35, 10 mM MgCl2, 1 mM EGTA). Peptide/Kinase Mixtures are diluted to a 2× working concentration in the appropriate Kinase Buffers as described below.
(v) Peptide/Kinase Mixtures for Measurement of BTK:
The 2×BTK/Tyr 01 mixture is prepared in 50 mM HEPES pH 7.5, 0.01% BRIJ-35, 10 mM MgCl2, 1 mM EGTA.
The mixture is then incubated for another 60-minute at room temperature for development reaction. Finally fluorescence is read by plate reader.
(§3) To determine IC50 of a compound against EGFR, EGFR mutant and other kinases, a series of concentrations of the compound were tested for the inhibition. […] The scale utilized in Table 4 is as follows: +++ less than 100 nM, ++ 100-500 nM and + greater than 500 nM.

JAK2 = JAK2 (Homo sapiens (Human), UniProt O60674); experiment: Z'-LYTE kinase inhibition assay, JAK2; conditions: read-out: % inhibition JAK2; heading: % inhibition JAK2; compound at 0.041 μM
JAK2, sequence (O60674 whole entry): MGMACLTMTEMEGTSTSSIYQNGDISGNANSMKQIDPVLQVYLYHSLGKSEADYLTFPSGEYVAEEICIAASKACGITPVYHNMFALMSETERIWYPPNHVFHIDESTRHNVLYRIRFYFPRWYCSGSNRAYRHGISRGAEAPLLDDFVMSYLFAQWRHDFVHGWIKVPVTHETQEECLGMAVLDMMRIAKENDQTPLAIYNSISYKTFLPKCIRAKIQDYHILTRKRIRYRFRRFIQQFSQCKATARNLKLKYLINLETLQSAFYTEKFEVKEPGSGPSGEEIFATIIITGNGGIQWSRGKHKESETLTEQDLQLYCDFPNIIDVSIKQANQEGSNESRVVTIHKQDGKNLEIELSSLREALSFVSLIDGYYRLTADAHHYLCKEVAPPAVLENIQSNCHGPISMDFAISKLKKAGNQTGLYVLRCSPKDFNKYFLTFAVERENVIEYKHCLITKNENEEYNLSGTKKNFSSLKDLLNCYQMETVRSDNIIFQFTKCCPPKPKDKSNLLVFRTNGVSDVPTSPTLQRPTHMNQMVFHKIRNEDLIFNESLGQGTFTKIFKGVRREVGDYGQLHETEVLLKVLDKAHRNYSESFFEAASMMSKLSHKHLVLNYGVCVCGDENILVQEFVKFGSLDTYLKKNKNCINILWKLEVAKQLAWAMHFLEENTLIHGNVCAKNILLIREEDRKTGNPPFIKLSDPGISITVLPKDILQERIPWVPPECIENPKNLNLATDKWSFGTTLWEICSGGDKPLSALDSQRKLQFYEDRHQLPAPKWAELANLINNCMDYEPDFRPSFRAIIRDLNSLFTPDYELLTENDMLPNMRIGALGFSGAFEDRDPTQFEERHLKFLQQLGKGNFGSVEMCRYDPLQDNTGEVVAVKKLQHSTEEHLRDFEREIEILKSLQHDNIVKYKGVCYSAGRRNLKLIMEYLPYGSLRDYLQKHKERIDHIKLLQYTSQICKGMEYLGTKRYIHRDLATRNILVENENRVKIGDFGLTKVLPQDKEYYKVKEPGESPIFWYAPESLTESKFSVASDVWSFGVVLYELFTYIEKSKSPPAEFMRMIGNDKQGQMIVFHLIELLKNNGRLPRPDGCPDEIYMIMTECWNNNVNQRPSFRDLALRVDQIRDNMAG
Method: as §1, §2
(v) Peptide/Kinase Mixtures for Measurement of JAK2:
The 2×JAK2/Tyr 06 mixture is prepared in 50 mM HEPES pH 7.5, 0.01% BRIJ-35, 10 mM MgCl2, 1 mM EGTA. The final 10 μL Kinase Reaction consists of 0.06-0.81 ng JAK2 and 2 μM Tyr 06 in 50 mM HEPES pH 7.5, 0.01% BRIJ-35, 10 mM MgCl2, 1 mM EGTA. After the 1 hour Kinase Reaction incubation, 5 μL of a 1:64 dilution of Development Reagent A is added.
(§4) Reaction starts by 30-second shaking of mixture consisting of 2.5 μL 4× test compound, 5 μL 2× kinase reaction mixture and 2.5 μL 4×ATP Solution on Bar-coded Corning, low volume NBS, black 384-well plate (Corning Cat. #3676). Then the mixture is incubated for 60-minute at room temperature for the kinase reaction, followed by addition of 5 μL of a 1:1024 dilution of development reagent A and 30-second plate shake. The mixture is then incubated for another 60-minute at room temperature for development reaction. Finally fluorescence is read by plate reader.

FGFR1 = FGFR1 (Homo sapiens (Human), UniProt P11362); experiment: Z'-LYTE kinase inhibition assay, FGFR1; conditions: read-out: % inhibition FGFR1; heading: % inhibition FGFR1; compound at 0.041 μM
FGFR1, sequence (P11362 22-822): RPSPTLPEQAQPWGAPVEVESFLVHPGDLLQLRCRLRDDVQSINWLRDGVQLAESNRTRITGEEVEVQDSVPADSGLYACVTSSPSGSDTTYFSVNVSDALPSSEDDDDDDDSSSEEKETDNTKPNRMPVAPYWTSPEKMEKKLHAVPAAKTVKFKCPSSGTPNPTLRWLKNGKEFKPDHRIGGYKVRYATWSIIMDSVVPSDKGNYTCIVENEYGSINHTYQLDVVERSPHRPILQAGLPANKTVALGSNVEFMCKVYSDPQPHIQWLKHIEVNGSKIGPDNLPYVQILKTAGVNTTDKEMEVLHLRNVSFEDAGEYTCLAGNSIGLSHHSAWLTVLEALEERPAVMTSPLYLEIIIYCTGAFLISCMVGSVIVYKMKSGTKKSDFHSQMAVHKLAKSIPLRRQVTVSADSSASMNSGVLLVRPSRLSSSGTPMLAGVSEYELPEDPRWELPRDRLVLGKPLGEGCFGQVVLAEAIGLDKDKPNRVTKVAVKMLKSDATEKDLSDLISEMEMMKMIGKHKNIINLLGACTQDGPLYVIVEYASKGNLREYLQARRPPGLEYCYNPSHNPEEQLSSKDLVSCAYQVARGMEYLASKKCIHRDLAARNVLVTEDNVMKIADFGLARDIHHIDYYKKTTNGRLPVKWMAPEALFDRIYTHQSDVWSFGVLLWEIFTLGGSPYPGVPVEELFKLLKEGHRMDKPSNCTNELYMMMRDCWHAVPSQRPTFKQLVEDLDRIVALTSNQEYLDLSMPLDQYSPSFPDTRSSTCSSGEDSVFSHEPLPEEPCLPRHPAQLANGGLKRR
Method: as §1, §2
(v) Peptide/Kinase Mixtures for Measurement of FGFR1:
The 2×FGFR1/Tyr 04 mixture is prepared in 50 mM HEPES pH 7.5, 0.01% BRIJ-35, 10 mM MgCl2, 4 mM MnCl2, 1 mM EGTA, 2 mM DTT. The final 10 μL Kinase Reaction consists of 0.41-3.5 ng FGFR1 and 2 μM Tyr 04 in 50 mM HEPES pH 7.5, 0.01% BRIJ-35, 10 mM MgCl2, 2 mM MnCl2, 1 mM EGTA, 1 mM DTT. After the 1 hour Kinase Reaction incubation, 5 μL of a 1:64 dilution of Development Reagent B is added.
as §4, §3

EGFR (ErbB1) T790M L858R = EGFR (ErbB1) T790M L858R (Homo sapiens (Human), UniProt P00533, L858R/T790M); experiment: Z'-LYTE kinase inhibition assay, EGFR L858R/T790M; conditions: for inhibition at 0.0137 µM: read-out: % inhibition EGFR L858R/T790M (Compound at 0.0137 μM)
EGFR (ErbB1) T790M L858R, sequence (P00533 25-1210 T790M/L858R): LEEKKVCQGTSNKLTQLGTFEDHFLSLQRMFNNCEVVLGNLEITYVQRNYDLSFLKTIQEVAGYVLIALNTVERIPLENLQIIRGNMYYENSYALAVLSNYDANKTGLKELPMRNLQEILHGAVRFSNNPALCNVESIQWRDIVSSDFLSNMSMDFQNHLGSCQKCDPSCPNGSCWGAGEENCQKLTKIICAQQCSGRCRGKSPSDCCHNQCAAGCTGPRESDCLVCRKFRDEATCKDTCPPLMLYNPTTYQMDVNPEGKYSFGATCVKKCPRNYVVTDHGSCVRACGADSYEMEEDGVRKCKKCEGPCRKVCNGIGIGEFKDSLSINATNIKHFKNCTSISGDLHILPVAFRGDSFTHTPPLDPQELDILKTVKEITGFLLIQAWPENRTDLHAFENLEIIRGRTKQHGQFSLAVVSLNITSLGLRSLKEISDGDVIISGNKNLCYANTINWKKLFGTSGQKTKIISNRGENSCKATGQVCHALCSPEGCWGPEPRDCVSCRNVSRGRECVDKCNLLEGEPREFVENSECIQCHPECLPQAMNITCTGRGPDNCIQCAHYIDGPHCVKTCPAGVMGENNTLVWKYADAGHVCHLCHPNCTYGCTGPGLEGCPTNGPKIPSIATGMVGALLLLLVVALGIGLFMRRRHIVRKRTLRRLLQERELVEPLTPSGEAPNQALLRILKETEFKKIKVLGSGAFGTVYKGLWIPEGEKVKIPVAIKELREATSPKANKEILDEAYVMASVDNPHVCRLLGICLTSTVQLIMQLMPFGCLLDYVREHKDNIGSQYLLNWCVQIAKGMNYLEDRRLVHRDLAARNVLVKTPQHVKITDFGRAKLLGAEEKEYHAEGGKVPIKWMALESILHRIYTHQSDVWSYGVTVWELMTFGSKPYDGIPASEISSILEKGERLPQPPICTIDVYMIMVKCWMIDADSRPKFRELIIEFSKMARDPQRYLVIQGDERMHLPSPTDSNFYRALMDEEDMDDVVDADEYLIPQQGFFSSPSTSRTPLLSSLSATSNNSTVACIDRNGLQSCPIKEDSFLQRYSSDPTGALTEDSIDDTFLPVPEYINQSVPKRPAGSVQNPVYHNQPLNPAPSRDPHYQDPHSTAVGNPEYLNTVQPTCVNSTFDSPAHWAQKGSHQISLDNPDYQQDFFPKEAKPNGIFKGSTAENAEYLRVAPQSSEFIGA
Method: Inhibitory activities of compounds against BTK, EGFR and EGFR mutants (EGFR L858R, EGFR T790M, EGFR L858R/T790M), FGFR1, FGFR2, JAK2, JAK3 and KDR were measured by Invitrogen using Z'-LYTE® Method as briefly described in the following. Test Compounds are screened in 1% DMSO (final) in the well. For 10 point titrations, 3-fold serial dilutions are conducted from the starting concentration. All ATP Solutions are diluted to a 4× working concentration in Kinase Buffer (50 mM HEPES pH 7.5, 0.01% BRIJ-35, 10 mM MgCl2, 1 mM EGTA). Peptide/Kinase Mixtures are diluted to a 2× working concentration in the appropriate Kinase Buffers as described below. (iv) Peptide/Kinase Mixtures for Measurement of EGFR (ErbB1) T790M L858R: The 2×EGFR (ErbB1) […] mixture is prepared in 50 mM HEPES pH 6.5, 0.01% BRIJ-35, 10 mM MgCl2, 1 mM EGTA, 0.02% NaN3. […] After the 1 hour Kinase Reaction incubation, 5 μL of a 1:64 dilution of Development Reagent B is added. Reaction starts by 30-second shaking of mixture consisting of 2.5 μL 4× test compound, 5 μL 2× kinase reaction mixture and 2.5 μL 4×ATP Solution on Bar-coded Corning, low volume NBS, black 384-well plate (Corning Cat. #3676). Then the mixture is incubated for 60-minute at room temperature for the kinase reaction, followed by addition of 5 μL of a 1:1024 dilution of development reagent A and 30-second plate shake. The mixture is then incubated for another 60-minute at room temperature for development reaction. Finally fluorescence is read by plate reader. To determine IC50 of a compound against EGFR, EGFR mutant and other kinases, a series of concentrations of the compound were tested for the inhibition.

BTK, sequence (Q06187 whole entry): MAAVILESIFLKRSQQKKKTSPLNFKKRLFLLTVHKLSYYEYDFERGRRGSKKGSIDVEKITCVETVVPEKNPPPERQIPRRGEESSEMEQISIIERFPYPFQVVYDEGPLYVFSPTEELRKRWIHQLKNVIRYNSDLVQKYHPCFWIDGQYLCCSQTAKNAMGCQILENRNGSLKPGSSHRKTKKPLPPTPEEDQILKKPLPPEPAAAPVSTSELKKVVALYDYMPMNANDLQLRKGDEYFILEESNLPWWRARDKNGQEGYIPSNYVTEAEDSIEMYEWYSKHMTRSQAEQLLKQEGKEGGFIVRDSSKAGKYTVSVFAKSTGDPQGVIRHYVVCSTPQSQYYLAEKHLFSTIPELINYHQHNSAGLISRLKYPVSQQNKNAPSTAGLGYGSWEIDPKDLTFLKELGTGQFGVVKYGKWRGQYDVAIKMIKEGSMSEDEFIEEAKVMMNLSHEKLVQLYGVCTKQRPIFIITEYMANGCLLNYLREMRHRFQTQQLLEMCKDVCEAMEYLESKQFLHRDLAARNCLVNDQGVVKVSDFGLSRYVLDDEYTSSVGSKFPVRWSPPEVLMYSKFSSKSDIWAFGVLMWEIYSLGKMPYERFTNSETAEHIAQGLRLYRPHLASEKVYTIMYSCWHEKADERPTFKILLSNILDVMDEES

Compound: C=CC(=O)Nc1cccc(-c2cccc3cnc(Nc4ccc(N5CCOCC5)cc4)nc23)c1 [Example C001, N-(3-(2-((4-morpholinophenyl)amino)quinazolin-8-yl)phenyl)acrylamide]
- inhibition at 0.041 µM (BTK): > 50%
- inhibition at 0.041 µM (JAK2): > 50%
- inhibition at 0.041 µM (FGFR1): > 50%

Compound: C=CC(=O)Nc1cccc(-c2cccc3cnc(Nc4ccc(N5CCN(C)CC5)cc4)nc23)c1 [Example C021, N-(3-(2-((4-(4-methylpiperazin-1-yl)phenyl)amino)quinazolin-8-yl)phenyl)acrylamide]
- inhibition at 0.0137 µM (EGFR (ErbB1) T790M L858R): > 50%
- inhibition at 0.041 µM (JAK2): > 50%

Compound: Fc1ccc(OCCN2CCOCC2)cc1-c1cccc2cnc(Nc3ccc(N4CCOCC4)cc3)nc12 [Example C023, 8-(2-fluoro-5-(2-morpholinoethoxy)phenyl)-N-(4-morpholinophenyl)quinazolin-2-amine]
- inhibition at 0.041 µM (BTK): < 50%
- inhibition at 0.041 µM (JAK2): < 50%
- inhibition at 0.041 µM (FGFR1): < 50%

Compound: Fc1cccc(-c2cccc3cnc(Nc4ccc(N5CCNCC5)cc4)nc23)c1 [Example C027, 8-(3-fluorophenyl)-N-(4-(piperazin-1-yl)phenyl)quinazolin-2-amine]
- inhibition at 0.041 µM (FGFR1): > 50%

Compound: C=CC(=O)Nc1cccc(-c2cccc3cnc(Nc4ccc(N5CCN(C(C)=O)CC5)cc4)nc23)c1 [Example C032, N-(3-(2-((4-(4-acetylpiperazin-1-yl)phenyl)amino)quinazolin-8-yl)phenyl)acrylamide]
- inhibition at 0.041 µM (BTK): > 50%
- inhibition at 0.0137 µM (EGFR (ErbB1) T790M L858R): < 50%
- inhibition at 1 µM (EGFR (ErbB1) T790M L858R; read-out: % inhibition EGFR L858R/T790M (Compound at 1 μM)): > 50%
- inhibition at 0.041 µM (JAK2): > 50%

Compound: C=CC(=O)Nc1cncc(-c2cccc3cnc(Nc4ccc(N5CCN(C)CC5)cc4)nc23)c1 [Example C040, N-(5-(2-((4-(4-methylpiperazin-1-yl)phenyl)amino)quinazolin-8-yl)pyridin-3-yl)acrylamide]
- inhibition at 0.041 µM (BTK): > 50%
- inhibition at 0.0137 µM (EGFR (ErbB1) T790M L858R): > 50%
- inhibition at 0.041 µM (JAK2): < 50%

Compound: C=CC(=O)Nc1cccc(-c2cccc3cnc(Nc4ccc(N5CCN(C)CC5)cc4F)nc23)c1 [Example C044, N-(3-(2-((2-fluoro-4-(4-methylpiperazin-1-yl)phenyl)amino)quinazolin-8-yl)phenyl)acrylamide]
- inhibition at 0.041 µM (FGFR1): < 50%

Compound: C=CC(=O)Nc1cccc(-c2cccc3cnc(Nc4ccc(N5CCN(C(C)=O)CC5)cc4)nc23)c1Cl [Example C051, N-(3-(2-((4-(4-acetylpiperazin-1-yl)phenyl)amino)quinazolin-8-yl)-2-chlorophenyl)acrylamide]
- inhibition at 0.041 µM (FGFR1): < 50%

Compound: C=CC(=O)Nc1cccc(-c2cccc3cnc(Nc4ccc(N5CCN(CCF)CC5)cc4)nc23)c1 [Example C053, N-(3-(2-((4-(4-(2-fluoroethyl)piperazin-1-yl)phenyl)amino)quinazolin-8-yl)phenyl)acrylamide]
- inhibition at 0.041 µM (BTK): > 50%
- inhibition at 0.041 µM (JAK2): > 50%
- inhibition at 0.041 µM (FGFR1): > 50%

Compound: C=CC(=O)Nc1cccc(-c2cccc3cnc(Nc4ccc(N5CCN(C)CC5)nc4OC)nc23)c1 [Example C055, N-(3-(2-((2-methoxy-6-(4-methylpiperazin-1-yl)pyridin-3-yl)amino)quinazolin-8-yl)phenyl)acrylamide]
- inhibition at 0.041 µM (BTK): < 50%
- inhibition at 0.041 µM (JAK2): < 50%

Compound: C=CC(=O)Nc1cccc(-c2cccc3cnc(Nc4ccc(N5CCN(CCO)CC5)cc4)nc23)c1 [Example C059, N-(3-(2-((4-(4-(2-hydroxyethyl)piperazin-1-yl)phenyl)amino)quinazolin-8-yl)phenyl)acrylamide]
- inhibition at 0.0137 µM (EGFR (ErbB1) T790M L858R): > 50%
- inhibition at 0.041 µM (FGFR1): > 50%

The remaining lines, values ahead:

- inhibition at 0.041 µM (BTK): < 50%
- inhibition at 0.041 µM (FGFR1): < 50%
Compound: Clc1cccc(-c2cccc3cnc(Nc4ccc(N5CCOCC5)cc4)nc23)c1 [Example C008, 8-(3-chlorophenyl)-N-(4-morpholinophenyl)quinazolin-2-amine]

- inhibition at 0.041 µM (BTK): > 50%
- inhibition at 0.041 µM (JAK2): > 50%
Compound: CC(=O)Nc1cccc(-c2cccc3cnc(Nc4ccc(N5CCN(C)CC5)cc4)nc23)c1 [Example C022, N-(3-(2-((4-(4-methylpiperazin-1-yl)phenyl)amino)quinazolin-8-yl)phenyl)acetamide]

- inhibition at 0.041 µM (BTK): > 50%
- inhibition at 0.041 µM (JAK2): < 50%
Compound: C=CC(=O)Nc1cccc(-c2c(C)ccc3cnc(Nc4ccc(N5CCOCC5)cc4)nc23)c1 [Example C033, N-(3-(7-methyl-2-((4-morpholinophenyl)amino)quinazolin-8-yl)phenyl)acrylamide]

- inhibition at 0.041 µM (FGFR1): < 50%
Compound: C=CC(=O)Nc1cccc(-c2cccc3cnc(Nc4ccc(N5CCN(C(C)=O)CC5)nc4)nc23)c1 [Example C036, N-(3-(2-((6-(4-acetylpiperazin-1-yl)pyridin-3-yl)amino)quinazolin-8-yl)phenyl)acrylamide]

- inhibition at 0.041 µM (BTK): > 50%
- inhibition at 0.041 µM (JAK2): > 50%
Compound: C=CC(=O)Nc1cccc(-c2cccc3cnc(Nc4ccc(N5CCN(C)CC5)cc4)nc23)c1Cl [Example C054, N-(2-chloro-3-(2-((4-(4-methylpiperazin-1-yl)phenyl)amino)quinazolin-8-yl)phenyl)acrylamide]

- inhibition at 0.041 µM (FGFR1): > 50%
Compound: C=CC(=O)Nc1cccc(-c2cccc3cnc(Nc4ccc(N5CCN(C)CC5)c(OC)c4)nc23)c1 [Example C075, N-(3-(2-((3-methoxy-4-(4-methylpiperazin-1-yl)phenyl)amino)quinazolin-8-yl)phenyl)acrylamide]
